Results taken from patent US10238631B2, “Sesquiterpene derivatives and their use in inflammation or cancer treatment” (Academia Sinica, priority 2014, dated 2019).

Legend:
[1] = test system: DMBA/TPA-induced skin papillomas accelerated by PLX4032
Experimental: Dorsal skin of six weeks old female FVB/N mice were shaved and treated with topical application of DMBA (25 μg in 100 μL acetone). One week after DMBA treatment, the same skin area were treated topically twice weekly with 12-O-tetradecanoylphorbol-13-acetate (TPA) (4 μg in 100 μL acetone). The area was regularly shaved and tumor formation was assessed twice weekly, and tumors were defined as raised lesions of a minimum diameter of 1 mm.

[2] = test system: A375-R PLX4032-resistant melanoma tumor; test: A375-R melanoma xenograft model in NOD/SCID mice; assay type: in vivo, mouse; details: PLX4032 75 mg/kg
Experimental: (§1) A375 and A375-R melanoma cells (3×10^6) were injected subcutaneously to the flanks of the six weeks old NOD/SCID mice. One week after the inoculation, the mice were randomized into treated groups (n=8 per group) and the treatments were started. Body weight and tumor volume of the mice were recorded every three days using formula a×b^2×0.5, where a and b represented the larger and smaller tumor diameters.
To study whether or not DETD-35 could overcome acquired resistance to BRAF inhibitor, we generated A375 cell line resistant to PLX4032 (designated A375-R) as described above. We then conducted A375-R orthotopic xenograft study.

[3] = test system: A375-R acquired vemurafenib resistance melanoma cells; test: MTT cell viability assay, PLX4032-resistant A375-R; assay type: cell-based, human; details: 72 h
Experimental: A375-R, acquired vemurafenib resistance melanoma cell was generated from A375 parental cell and grown in same conditions as A375 cell.
Normal or cancer cells (2×10^3 to 1×10^4 cells/well) were seeded in 96-well plate for overnight and treated with different compounds for 24 h to 72 h. Cells growth were determined by MTT-based colorimetric assays according to. Viability of the test cells treated with vehicle (0.5% DMSO) only was defined as 100% viable. Survival of cells after treatment with DETDs was calculated using the following formula: viable cell number (%)=OD570 (treated cell culture)/OD570 (vehicle control)×100.
To study the mechanisms underlying how DETD-35 overcomes acquired resistance to BRAF inhibitor, we generated A375 cell line resistant to PLX4032 (designated A375-R). Briefly, A375 melanoma cells were seeded in T75 plate and treated with ascending concentration of PLX4032 (20, 50, 100, 250, 500, 1000, 2000 nM) through approximately 2 months and 20 passages.

A375 (BRAF mutation) = test: MTT cell viability assay, A375 melanoma; assay type: cell-based, human; details: Homo sapiens, A-375, 72 h, 72 h, MTT; read-out: IC50 on A375 cells
Method in brief: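 A375 cells were seeded at 2×10^3 to 1×10^4 per well overnight and then exposed to compounds for 24 h to 72 h. Viability was measured by MTT absorbance at OD570 relative to 0.5% DMSO vehicle (100%), and IC50 was derived from it. Combination with PLX4032 was scored by combination index.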

[4] = test system: A375 human melanoma tumor; test: A375 melanoma xenograft model in NOD/SCID mice; assay type: in vivo, mouse; details: 20 mg/kg i.p.; PLX4032 every day, DET and DETD-35 every two days
Experimental: as §1
We used A375 human melanoma xenograft model to evaluate the in vivo bioefficacy of DET. DETD-35, PLX4032 and compound drug combination. […] For single compound or drug treatment group, PLX4032 was administered i.p. every day and DET and DETD-35 were administered i.p. every two days. For combination treatment, PLX4032 was administered every two days while DET and DETD-35 were administered every four days. […] Compound-drug combinational treatments were carried out with alternative administration of DET (20 mg/kg) or DETD-35 (20 mg/kg) and PLX4032 (20 mg/kg) by which DET or DETD-35 and PLX4032 treatment frequency were only half of the single compound or drug administration alone.

[5] = DMBA/TPA + PLX4032 20 mg/kg i.p. twice per week

Experimental for MDA-MB-231 cells: Briefly, cells (5×10^3 cells/well) were seeded in 96-well plates and treated with BSO at concentrations 100 μM, 45 μM, 18 μM, 7.2 μM, 2.8 μM, 1.15 μM, 461 nM, 184 nM, 74 nM and 29 nM, and sulfasalazine at concentrations 62.75 μM, 25.10 μM, 10 μM, 4 μM, 1.6 μM, 642 nM, 257 nM, 102 nM, 41 nM and 16.4 nM for 30 h, and then 12 μM DET or 3 μM DETD-35 were added in the cultural medium to treat the cells for another 24 h. Cell proliferation was measured by MIT assay.

SMILES | start of papillomas formation ([1]; DMBA-TPA treated mice + PLX4032, without PLX4032 week 6 to 7) [weeks] | papillomas size in average [1, 5] [mm^3] | total papillomas number [1, 5] | tumor growth rate and size relative to control group (100%) [2] [%] | fold less sensitive, A375-R vs parental A375 [3] | IC50 ([3]; Homo sapiens, MTT) [µM] | IC50 (A375 (BRAF mutation)) [µM] | reduction of tumor mass vs tumor control [4] [%] | cytotoxicity of blocker alone (MDA-MB-231 cells)
CCCS(=O)(=O)Nc1ccc(F)c(C(=O)c2c[nH]c3ncc(-c4ccc(Cl)cc4)cc23)c1F [PLX4032, Vemurafenib] | 3 to 4 | 77.6 | 25.6 | 98 | more than 100 fold | 8.3 | 0.07 | 71.9 | 
O=C(O)c1cc(/N=N/c2ccc(S(=O)(=O)Nc3ccccn3)cc2)ccc1O [sulfasalazine] |  |  |  |  |  |  |  |  | did not show any cytotoxicity
